Laboratory results published in ChEMBL document CHEMBL3421609, “Sandensone A, a novel sesquiterpenoid from the Formosan soft coral Sinularia sandensis” (2015).
Activity calls are given as the source filed them. No cut-off for these calls is given here.

Legend:
Human betaherpesvirus 5 [1] = test: Antiviral activity against human cytomegalovirus infected in HEL cells assessed as reduction in virus replication; format: functional; conditions: Human betaherpesvirus 5, HEL; read-out: ED50 (the source's name)
HT-29 = test: Cytotoxicity against human HT-29 cells by MTT assay; format: functional; conditions: read-out: ED50 (the source's name)
Human betaherpesvirus 5 [2] = test: Antiviral activity against human cytomegalovirus infected in HEL cells assessed as reduction in virus replication at 1 ug/ml; format: functional, organism-based
A549 = test: Cytotoxicity against human A549 cells by MTT assay; format: functional; conditions: read-out: ED50 (the source's name)
P388 = test: Cytotoxicity against mouse P388 cells by MTT assay; format: functional; conditions: read-out: ED50 (the source's name)

SMILES | EC50 (Human betaherpesvirus 5 [1]) | EC50 (HT-29) | Activity (Human betaherpesvirus 5 [2]) | EC50 (A549) | EC50 (P388)
C=C/C(C)=C/C/C=C(\C)[C@H]1C(=O)C=C(C)[C@@H]1O | > 50 µg/mL | 38 µM | inactive | > 50 µM | 22 µM
CO[C@H](C(=O)[C@@H](O)[C@@H](C)O)[C@@H]1Cc2cc3cc(O[C@H]4C[C@@H](O[C@@H]5C[C@@H](O)[C@H](O)[C@@H](C)O5)[C@H](O)[C@@H](C)O4)c(C)c(O)c3c(O)c2C(=O)[C@H]1O[C@H]1C[C@@H](O[C@@H]2C[C@@H](O)[C@@H](O[C@@H]3C[C@](C)(O)[C@H](O)[C@@H](C)O3)[C@@H](C)O2)[C@H](O)[C@@H](C)O1 [PLICAMYCIN] | – | 0.07 µM | – | 0.06 µM | 0.05 µM
